Results on four compounds are retold here after patent publication US9951372B2, “Compounds and methods for assaying redox state of metabolically active cells and methods for measuring NAD(P)/NAD(P)H” (PROMEGA CORPORATION, priority 2011, dated 2018).

For one test, the target named is T1, rat diaphorase (Rattus norvegicus, UniProt P05982).
T1 construct: purchased Sigma
T1 sequence (P05982 2-274 limits assumed): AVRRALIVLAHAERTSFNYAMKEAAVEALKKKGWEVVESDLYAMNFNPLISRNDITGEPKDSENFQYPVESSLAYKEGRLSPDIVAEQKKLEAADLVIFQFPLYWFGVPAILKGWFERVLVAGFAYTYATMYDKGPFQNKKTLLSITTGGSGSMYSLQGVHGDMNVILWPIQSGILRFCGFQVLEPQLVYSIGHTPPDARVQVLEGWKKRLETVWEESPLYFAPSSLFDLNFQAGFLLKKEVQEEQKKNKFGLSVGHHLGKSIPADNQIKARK
It is filed as biochemical. Conditions: for FLUs: 1 u/ml rat diaphorase; for Fluorescence time course, Rat: 10 uM NADH.

The next test deals with Clostridium diaphorase. In words: Fluorescent NADH detection assay, Clostridium diaphorase. In kind it is biochemical. To be noted: for FLUs: 1 u/ml Clostridium diaphorase; for Fluorescence time course, Clostridium: 10 uM NADH. The method, then:
Each fluorescent substrate (PBI-4412, 4413, 4440, and 4441) was incubated at 920 μM with 0 μM or 10 μM NADH (Sigma) or a titration of NADH (Table 8) and 1 u/ml rat diaphorase (Sigma) or 1 u/ml Clostridium diaphorase (Sigma) in a volume of 100 μl in 50 mM Tris pH 7.5. Single reactions were prepared in the wells of a 96-well black plate at room temperature. Fluorescence was monitored over the course of two hours at excitation and emission wavelengths of 485 and 527, respectively, using a fluorescence plate reader. […] Table 7 and FIGS. 24a-b show the reaction time course with each substrate with 10 uM NADH. Table 8 and FIG. 25 show the NADH titration at 60 minutes with PBI-4440 and 4412 with rat diaphorase.

Another test relates to HeLa cells. The experiment in a line: Fluorescent imaging of live cells. It is filed as cell-based. To be noted: 10 μM substrate. The method, then:
HeLa cells were plated at 40,000 cell/well into wells of an 8-well chambered coverslip and incubated at 37° C.+5% CO2. The media (DMEM) was replaced with warm complete media (with 10% FBS) containing 10 μM PBI-4412, 4413, 4440 or 4441. Cells were then transferred to a confocal microscope for imaging using 10% λ488 nm laser power (4412, 4413, and 4441) or 5% laser power (4440). All images (FIGS. 6a-d) are at 30× magnification.

The subject of a further test is Jurkat cells. In words: Measuring metabolically active cells with quinone coelenterazine derivatives. To be noted: Jurkat cell dilutions; 30 minute incubation; Oplophorus luciferase detection reagent. In kind it is cell-based, human. The method, then: Two-fold serial dilutions of Jurkat cells were prepared in PBS, and 50 μl per well transferred to wells in 96-well plates. Compound PBI 4600 and 4601 were diluted in PBS to make 50 μM and 100 μM stocks, respectively. 10 μl of prepared compound stocks were added to the cells, and the cells were placed into 37° C., 5% CO2 incubator. Following a 30 minute incubation, the cells were removed from incubator, cooled at room temperature for 10 minutes, and 50 μl of Oplophorus luciferase detection reagent (Promega Corporation) added directly to the wells. The samples were mixed, incubated at room temperature for 20 minutes, and luminescence measured.

[1] abbreviates: 10 μM NADH, 60 min, substrate 920 μM.

SMILES strings stand for the structures. Read-outs that look alike come from different tables or passages of the source.

Take `CC1=CC(=O)C(C)=C(C(C)(C)CC(=O)N(C)CCN(C)C(=O)Oc2ccc3c(c2)Oc2cc(OC(=O)N(C)CCN(C)C(=O)CC(C)(C)C4=C(C)C(=O)C=C(C)C4=O)ccc2C32OC(=O)c3ccccc32)C1=O` [PBI 4413, Bis-quinone trimethyllock diamine fluorescein]: the FLUs is 39 FLUs at rat diaphorase (0 μM NADH, 60 min); 7397 FLUs on rat diaphorase (setting [1]); 255 FLUs in the test on Clostridium diaphorase (0 μM NADH, 60 min); 2517 FLUs in the test on Clostridium diaphorase (setting [1]). Also, the “Fluorescence time course, Rat” value on rat diaphorase (2 min) is on record as 180 FLUs; at rat diaphorase (4 min), 419 FLUs; on rat diaphorase (5 min), 545 FLUs; at rat diaphorase (10 min) it was 1091 FLUs; on rat diaphorase (20 min), 2151 FLUs; on rat diaphorase (30 min) it was 3407 FLUs. The “Fluorescence time course, Rat” value at rat diaphorase (40 min) was found to be 4669 FLUs; at rat diaphorase (50 min) it was 6127 FLUs; on rat diaphorase (60 min) it was 7397 FLUs; at rat diaphorase (70 min), 9925 FLUs; on rat diaphorase (80 min) it was 10959 FLUs; at rat diaphorase (90 min) it was 12101 FLUs. For the same compound, the “Fluorescence time course, Rat” value at rat diaphorase (100 min) turned out to be 13732 FLUs; at rat diaphorase (110 min), 15434 FLUs; at rat diaphorase (120 min) it was 16666 FLUs. The “Fluorescence time course, Clostridium” value in the test with Clostridium diaphorase (2 min) was determined as 264 FLUs; with Clostridium diaphorase (4 min), 457 FLUs; with Clostridium diaphorase (5 min), 698 FLUs; in the test with Clostridium diaphorase (10 min), 1195 FLUs; with Clostridium diaphorase (20 min) it was 2167 FLUs; in the test on Clostridium diaphorase (30 min), 2896 FLUs. Besides, the “Fluorescence time course, Clostridium” value in the test with Clostridium diaphorase (40 min) was determined as 3329 FLUs; with Clostridium diaphorase (50 min), 3519 FLUs; in the test on Clostridium diaphorase (60 min), 3664 FLUs; with Clostridium diaphorase (70 min) it was 3803 FLUs; with Clostridium diaphorase (80 min), 3841 FLUs; with Clostridium diaphorase (90 min), 3798 FLUs. For the same compound, the “Fluorescence time course, Clostridium” value with Clostridium diaphorase (100 min) turned out to be 3801 FLUs; in the test with Clostridium diaphorase (110 min), 3820 FLUs; in the test on Clostridium diaphorase (120 min), 3821 FLUs. Further, in the test with HeLa cells, the “reduction of substrate in live cells (confocal images)” value is reported as “only reduced once inside cells”.
For `CC1=C(C)C(=O)C(C(C)(C)CC(=O)N(C)CCN(C)C(=O)Oc2ccc3c(c2)Oc2cc(OC(=O)N(C)CCN(C)C(=O)CC(C)(C)C4=C(C)C(=O)C(C)=C(C)C4=O)ccc2C32OC(=O)c3ccccc32)=C(C)C1=O` [PBI 4441, Bis-quinone trimethyllock diamine fluorescein], the FLUs turned out to be 120 FLUs on rat diaphorase (0 μM NADH, 60 min); 7387 FLUs on rat diaphorase (setting [1]); 314 FLUs with Clostridium diaphorase (0 μM NADH, 60 min); 2570 FLUs with Clostridium diaphorase (setting [1]). Besides, the “Fluorescence time course, Rat” value was 302 FLUs on rat diaphorase (2 min); 608 FLUs at rat diaphorase (4 min); 827 FLUs on rat diaphorase (5 min); 1961 FLUs on rat diaphorase (10 min); 3454 FLUs at rat diaphorase (20 min); 4460 FLUs at rat diaphorase (30 min). Also, the “Fluorescence time course, Rat” value on rat diaphorase (40 min) worked out at 5442 FLUs; on rat diaphorase (50 min), 6457 FLUs; on rat diaphorase (60 min) it was 7387 FLUs; on rat diaphorase (70 min), 8891 FLUs; on rat diaphorase (80 min), 9545 FLUs; at rat diaphorase (90 min), 9915 FLUs. The “Fluorescence time course, Rat” value stood at 10496 FLUs on rat diaphorase (100 min), 10736 FLUs on rat diaphorase (110 min) and 11149 FLUs at rat diaphorase (120 min). Also, the “Fluorescence time course, Clostridium” value in the test on Clostridium diaphorase (2 min) is given as 354 FLUs; with Clostridium diaphorase (4 min), 481 FLUs; in the test with Clostridium diaphorase (5 min), 576 FLUs; with Clostridium diaphorase (10 min) it was 1152 FLUs; with Clostridium diaphorase (20 min), 1974 FLUs; with Clostridium diaphorase (30 min), 2334 FLUs. Moreover, the “Fluorescence time course, Clostridium” value in the test with Clostridium diaphorase (40 min) is given as 2515 FLUs; in the test on Clostridium diaphorase (50 min), 2514 FLUs; with Clostridium diaphorase (60 min), 2570 FLUs; with Clostridium diaphorase (70 min) it was 2584 FLUs; with Clostridium diaphorase (80 min) it was 2561 FLUs; with Clostridium diaphorase (90 min) it was 2539 FLUs. Moreover, the “Fluorescence time course, Clostridium” value in the test with Clostridium diaphorase (100 min) is 2555 FLUs; in the test on Clostridium diaphorase (110 min), 2515 FLUs; with Clostridium diaphorase (120 min), 2570 FLUs. Also, the “reduction of substrate in live cells (confocal images)” value in the test on HeLa cells is reported as “only reduced once inside cells”.
Turning to `CC1=C(C)C(=O)C(C(C)(C)CC(=O)N(C)CCN(C)C(=O)Oc2c(Cc3ccco3)nc3c(Cc4ccccc4)nc(-c4ccccc4)cn23)=C(C)C1=O` [PBI 4600], the “relationship of luminescence to cell number” value in the test on Jurkat cells is “linear correlation between cell number and luminescence”.
Still for that read-out and setting: next, `CC1=C(C)C(=O)C(C(C)(C)CC(=O)N(C)CCN(C)C(=O)Oc2c(Cc3ccccc3)nc3c(Cc4ccccc4)nc(-c4ccccc4)cn23)=C(C)C1=O` [PBI 4601]: “linear correlation between cell number and luminescence”.
